Data: ChEMBL document CHEMBL1201862, “PubChem BioAssay data set” (2004)
Activity calls are given as the source filed them.

What was measured:
[1] = restored growth of temperature-sensitive Burl-1 yeast – whole organism, S. cerevisiae, Burl-1 ts mutant, luminescence, counter-screen for SUMOylation pathway inhibitor project, dose response (AID 463199); format: functional
[2] = target: T1, Heat shock factor protein 1 (Mus musculus, UniProt P38532); experiment: enhancement of HSF1-driven luciferase signal – cell-based, NIH3T3, luminescence, dose retest, confirmation (AID 435004); format: functional;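 further: stress induced by proteasome inhibitor MG132 added 30 min after compound; luciferase reporter driven by HSF1 response element in NIH3T3 cells; actives raise luminescence as potentiators of the MG132 stress response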
T1 sequence (P38532 whole entry): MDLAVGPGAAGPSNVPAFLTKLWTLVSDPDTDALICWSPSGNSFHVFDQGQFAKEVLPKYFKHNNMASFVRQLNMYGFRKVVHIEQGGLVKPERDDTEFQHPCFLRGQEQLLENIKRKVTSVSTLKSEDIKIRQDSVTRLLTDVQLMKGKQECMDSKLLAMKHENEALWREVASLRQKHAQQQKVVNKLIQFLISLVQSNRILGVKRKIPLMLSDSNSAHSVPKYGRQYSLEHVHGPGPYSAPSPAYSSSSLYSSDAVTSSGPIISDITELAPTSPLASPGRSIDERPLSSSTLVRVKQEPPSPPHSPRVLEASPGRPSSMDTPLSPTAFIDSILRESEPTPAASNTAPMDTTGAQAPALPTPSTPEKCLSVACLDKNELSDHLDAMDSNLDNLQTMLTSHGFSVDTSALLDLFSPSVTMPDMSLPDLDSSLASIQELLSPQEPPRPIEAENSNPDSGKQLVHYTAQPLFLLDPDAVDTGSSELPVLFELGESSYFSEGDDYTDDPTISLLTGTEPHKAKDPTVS

[3] = target: T2, High affinity choline transporter 1 (Homo sapiens, UniProt Q9GZV3); experiment: human choline transporter blockers, potency – cell-based, 5-point CRC, membrane potential dye, dose response (AID 504840); format: functional
T2 sequence (Q9GZV3 whole entry): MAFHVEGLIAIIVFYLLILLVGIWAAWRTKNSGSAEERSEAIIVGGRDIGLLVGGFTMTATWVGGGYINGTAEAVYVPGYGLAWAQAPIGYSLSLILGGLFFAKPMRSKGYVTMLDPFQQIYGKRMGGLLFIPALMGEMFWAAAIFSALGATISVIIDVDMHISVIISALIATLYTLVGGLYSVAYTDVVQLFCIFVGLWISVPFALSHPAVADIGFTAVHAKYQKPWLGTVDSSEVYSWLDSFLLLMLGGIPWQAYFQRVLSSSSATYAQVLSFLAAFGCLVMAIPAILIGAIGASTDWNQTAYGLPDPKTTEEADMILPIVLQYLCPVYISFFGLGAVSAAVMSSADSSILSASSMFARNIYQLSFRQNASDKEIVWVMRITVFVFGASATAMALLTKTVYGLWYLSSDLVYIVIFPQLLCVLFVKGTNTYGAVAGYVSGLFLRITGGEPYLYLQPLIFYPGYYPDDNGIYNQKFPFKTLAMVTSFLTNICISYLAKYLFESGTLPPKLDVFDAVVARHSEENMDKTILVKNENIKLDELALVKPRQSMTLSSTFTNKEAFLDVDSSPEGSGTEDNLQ

[4] = target: T2, High affinity choline transporter 1; experiment: human choline transporter blockers, potency – cell-based, 10-point CRC, membrane potential dye, dose response (AID 588401); format: functional;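 further: membrane potential dye fluorescence of choline-evoked depolarization via CHT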
[5] = target: Low molecular weight phosphotyrosine protein phosphatase (Homo sapiens, UniProt P24666); format: functional; details: read-out: IC50_Mean;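 further: Dose-response confirmation assay measuring inhibition of LMPTP enzyme activity by fluorescence intensity read-out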
Low molecular weight phosphotyrosine protein phosphatase, sequence (P24666 whole entry): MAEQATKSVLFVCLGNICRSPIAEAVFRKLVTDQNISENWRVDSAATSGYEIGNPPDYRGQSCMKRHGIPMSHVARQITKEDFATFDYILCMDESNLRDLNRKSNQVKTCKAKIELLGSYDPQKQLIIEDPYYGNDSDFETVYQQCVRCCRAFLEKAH

[6] = target: Heat shock protein HSP 90-alpha (Homo sapiens, UniProt P07900); format: functional, organism-based
[7] = Luminescence Cell-Based Dose Retest to Confirm Inhibitors of Cancer Stem Cells. [Related pubchem assays (depositor defined):AID2717, AID2721]; format: functional; details: Homo sapiens
Melanocortin receptor 4 [8] = target: T3, Melanocortin receptor 4 (Homo sapiens, UniProt P32245); experiment: inhibitors of MC4R cAMP signaling – cell-based, TR-FRET, biased antagonists, dose response (AID 602298); format: functional;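 further: antagonist potency against agonist-stimulated cAMP production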
T3 sequence (P32245 whole entry): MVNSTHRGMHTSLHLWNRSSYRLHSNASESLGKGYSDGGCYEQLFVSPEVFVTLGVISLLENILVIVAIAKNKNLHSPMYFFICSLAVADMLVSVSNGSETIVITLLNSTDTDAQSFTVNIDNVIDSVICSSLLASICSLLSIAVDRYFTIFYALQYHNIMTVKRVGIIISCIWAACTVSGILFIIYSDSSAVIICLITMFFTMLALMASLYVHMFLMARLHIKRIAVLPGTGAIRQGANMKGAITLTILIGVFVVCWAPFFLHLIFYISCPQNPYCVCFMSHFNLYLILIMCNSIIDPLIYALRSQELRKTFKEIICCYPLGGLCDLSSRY

Melanocortin receptor 4 [9] = target: T3, Melanocortin receptor 4; format: functional, cell-based
[10] = cAMP pathway inhibition in counterscreen cell line – TR-FRET cAMP detection, counter-screen for MC4R biased antagonist project, dose response (AID 602305); format: functional, cell-based;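 further: U2OS cells stimulated with forskolin near its EC80 as the cAMP inducer; potency is for inhibition of forskolin-stimulated cAMP signaling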
[11] = A549 cell cytotoxicity, dose response, cytotoxicity control, plate reader, cherry-pick, antagonist series (AID 743412); format: functional, cell-based
[12] = blockers of bursicon-stimulated LGR2 cAMP reporter – cell-based, HEK293, CRE-luciferase reporter, cherry pick, set 2, dose response (AID 743343); format: functional;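 further: transfected cells were stimulated with diluted bursicon conditioned medium after compound addition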
[13] = blockade of melanocortin 4 receptor signaling – cell-based, plate reader, cherry pick, counter-screen for LGR2 antagonist project, dose response (AID 743444); format: functional;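 further: transfected HEK 293 cells stimulated with alpha-MSH peptide; potency of inhibitors of the alpha-MSH evoked signal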
[14] = viability loss in HEK293 cells – cell-based, plate reader, cherry-picked samples, cytotoxicity control, dose response (AID 743446); format: functional
Vero [15] = experiment: cells; format: functional, cell-based; details: Chlorocebus sabaeus
Vero [16] = experiment: cells; format: functional; details: Chlorocebus sabaeus
[17] = target: T4, Apoptotic protease-activating factor 1 (Homo sapiens, UniProt O14727); format: functional;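 on EC50 Mean: caspase-3 cleavage of fluorogenic Rh110 DEVD substrate downstream of apoptosome activation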
T4 sequence (O14727 whole entry): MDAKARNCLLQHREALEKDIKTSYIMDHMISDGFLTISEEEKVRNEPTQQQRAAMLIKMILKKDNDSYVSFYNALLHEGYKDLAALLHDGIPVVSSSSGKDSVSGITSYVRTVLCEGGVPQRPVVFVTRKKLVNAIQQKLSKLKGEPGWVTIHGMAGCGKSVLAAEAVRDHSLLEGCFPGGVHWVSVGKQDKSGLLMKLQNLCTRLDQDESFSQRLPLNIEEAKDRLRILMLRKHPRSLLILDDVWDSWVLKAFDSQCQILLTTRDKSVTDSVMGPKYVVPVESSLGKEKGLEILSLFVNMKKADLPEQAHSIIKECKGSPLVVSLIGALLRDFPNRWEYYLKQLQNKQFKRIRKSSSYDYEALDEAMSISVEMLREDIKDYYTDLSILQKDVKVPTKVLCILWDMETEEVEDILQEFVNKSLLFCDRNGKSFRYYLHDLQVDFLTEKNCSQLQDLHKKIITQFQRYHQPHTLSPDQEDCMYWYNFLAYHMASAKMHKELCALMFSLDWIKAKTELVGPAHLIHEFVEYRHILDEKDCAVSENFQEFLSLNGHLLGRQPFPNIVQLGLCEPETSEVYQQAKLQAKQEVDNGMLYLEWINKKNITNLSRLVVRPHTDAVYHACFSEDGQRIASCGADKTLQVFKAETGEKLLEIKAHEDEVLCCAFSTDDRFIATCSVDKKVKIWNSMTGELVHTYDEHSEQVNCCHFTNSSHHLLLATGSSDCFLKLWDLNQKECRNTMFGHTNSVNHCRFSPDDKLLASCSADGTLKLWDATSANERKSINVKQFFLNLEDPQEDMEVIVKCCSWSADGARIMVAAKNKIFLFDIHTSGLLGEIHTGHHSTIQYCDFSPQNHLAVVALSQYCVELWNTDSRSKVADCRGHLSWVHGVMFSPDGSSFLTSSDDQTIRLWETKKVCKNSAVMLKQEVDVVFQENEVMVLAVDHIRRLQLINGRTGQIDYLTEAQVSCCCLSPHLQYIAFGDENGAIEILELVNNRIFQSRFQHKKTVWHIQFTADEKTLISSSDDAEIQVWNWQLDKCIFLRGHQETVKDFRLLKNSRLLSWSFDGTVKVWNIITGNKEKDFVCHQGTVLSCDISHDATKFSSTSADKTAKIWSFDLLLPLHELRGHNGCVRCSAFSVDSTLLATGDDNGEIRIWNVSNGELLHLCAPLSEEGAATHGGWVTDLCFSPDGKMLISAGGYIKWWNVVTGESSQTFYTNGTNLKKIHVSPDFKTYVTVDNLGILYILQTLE

H9c2 = experiment: cells; format: functional, cell-based; details: Rattus norvegicus, H9c2, Myocardium;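 further: confirmatory concentration-response retest of ultra-high-throughput screening hits for modulation of myocardial damage; cell death induced by hydrogen peroxide oxidative stress; compound pretreatment for 60 min then peroxide exposure for 2 h; potency is for protecting the cells against peroxide damage rather than for killing them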
[18] = target: T4, Apoptotic protease-activating factor 1; experiment: SAR analysis of small molecule Activators of Apaf-1 in a Fluorescent assay.; format: functional; details: read-out: EC50_Mean
P388/ADR = experiment: cells; format: functional; details: Mus musculus
SN12K1 = experiment: cells; format: functional; details: Homo sapiens
P388 = experiment: cells; format: functional; details: Mus musculus
[19] = Trypanosoma cruzi growth suppression in host cells – NIH3T3 host cells, beta-gal luminescence, confirmation (AID 2044); format: functional, cell-based;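 further: intracellular parasites grown in NIH/3T3 mouse fibroblasts as host cells; luminescent beta-galactosidase reporter signal from transgenic T. cruzi replicating inside host cells; inhibitors lower the luminescence signal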
[20] = viability of PTEN-deleted HCT116 cells – cell-based, HCT116 PTEN knockout, dose response (AID 1047); format: functional;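 further: HCT116 colon tumor cells with PTEN knocked out; cells exposed to compound for 60 hours before readout; potency for loss of cell viability measured by luminescence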
[21] = NIH3T3 cell viability loss – ATP luminescence, mouse fibroblasts, counter-screen, dose response (AID 2010); format: functional, cell-based;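 further: cells exposed to compound for about 90 hours before reading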
[22] = viability of HCT116 lacking mutant beta-catenin – cell-based, human colon tumor, dose response (AID 1045); format: functional;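 further: HCT116 colon tumor cells with beta catenin knocked out; cells exposed to compound for 60 hours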
[23] = target: Glucose-6-phosphate 1-dehydrogenase (Homo sapiens, UniProt P11413); experiment: inhibition of Homo sapiens G6PD, dose series – biochemical, fluorescence, selectivity assay for P. falciparum G6PD inhibitor project, dose response (AID 504792); format: functional
Glucose-6-phosphate 1-dehydrogenase, sequence (P11413 whole entry): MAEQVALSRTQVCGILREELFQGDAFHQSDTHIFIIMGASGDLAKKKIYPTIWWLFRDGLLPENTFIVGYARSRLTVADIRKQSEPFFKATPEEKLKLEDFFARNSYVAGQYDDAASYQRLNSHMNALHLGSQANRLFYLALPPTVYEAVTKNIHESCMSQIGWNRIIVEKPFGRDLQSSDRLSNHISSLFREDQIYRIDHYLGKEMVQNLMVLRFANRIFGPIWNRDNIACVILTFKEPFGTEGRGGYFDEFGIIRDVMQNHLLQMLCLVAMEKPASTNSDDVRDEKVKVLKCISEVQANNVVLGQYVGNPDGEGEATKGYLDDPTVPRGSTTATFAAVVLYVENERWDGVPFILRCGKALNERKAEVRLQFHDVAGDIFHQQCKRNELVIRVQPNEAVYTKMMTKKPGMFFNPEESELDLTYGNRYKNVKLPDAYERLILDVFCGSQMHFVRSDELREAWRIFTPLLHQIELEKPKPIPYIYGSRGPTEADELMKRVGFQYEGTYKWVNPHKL

[24] = target: FAD-linked sulfhydryl oxidase ALR (Homo sapiens, UniProt P55789); experiment: ALR-catalysed DTT oxidation blockers – biochemical, H2O2 detection, luminescence, cherry-pick, dose response (AID 493248)
FAD-linked sulfhydryl oxidase ALR, sequence (P55789 whole entry): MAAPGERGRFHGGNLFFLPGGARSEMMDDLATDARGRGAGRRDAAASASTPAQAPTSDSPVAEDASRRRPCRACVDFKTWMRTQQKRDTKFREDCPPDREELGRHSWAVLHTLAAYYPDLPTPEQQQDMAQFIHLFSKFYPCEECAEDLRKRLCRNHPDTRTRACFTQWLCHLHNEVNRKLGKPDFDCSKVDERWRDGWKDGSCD

[25] = target: T5, Mitochondrial peptide methionine sulfoxide reductase (Bos taurus, UniProt P54149); experiment: Absorbance-based biochemical high throughput dose response assay for activators of Methionine sulfoxide reductase A (MsrA).; format: functional
T5 sequence (P54149 whole entry): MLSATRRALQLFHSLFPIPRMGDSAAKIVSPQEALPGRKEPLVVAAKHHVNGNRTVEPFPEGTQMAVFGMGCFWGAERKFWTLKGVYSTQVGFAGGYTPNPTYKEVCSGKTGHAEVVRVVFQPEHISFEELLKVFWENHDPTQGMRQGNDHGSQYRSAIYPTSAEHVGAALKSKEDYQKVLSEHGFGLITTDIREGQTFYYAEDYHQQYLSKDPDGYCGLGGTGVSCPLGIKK

Cytochrome P450 3A4 = Cytochrome P450 3A4 (Homo sapiens, UniProt P08684); details: Potency;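 further: confirmatory qHTS run detecting inhibitors and substrates of CYP3A4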
Cytochrome P450 3A4, sequence (P08684 whole entry): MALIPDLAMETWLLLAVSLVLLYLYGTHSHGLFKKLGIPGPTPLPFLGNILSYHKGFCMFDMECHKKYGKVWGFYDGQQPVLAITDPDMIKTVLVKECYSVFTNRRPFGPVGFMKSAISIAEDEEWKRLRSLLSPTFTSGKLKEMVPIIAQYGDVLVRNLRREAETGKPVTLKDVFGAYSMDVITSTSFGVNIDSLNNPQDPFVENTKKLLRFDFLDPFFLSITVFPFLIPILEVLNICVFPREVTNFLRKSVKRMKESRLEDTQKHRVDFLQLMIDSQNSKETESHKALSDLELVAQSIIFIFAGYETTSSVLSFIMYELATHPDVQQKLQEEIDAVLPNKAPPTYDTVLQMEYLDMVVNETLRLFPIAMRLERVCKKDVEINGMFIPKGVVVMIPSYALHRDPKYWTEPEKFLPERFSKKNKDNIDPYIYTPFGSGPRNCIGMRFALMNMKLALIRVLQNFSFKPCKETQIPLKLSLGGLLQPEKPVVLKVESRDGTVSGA

In the case of `CCc1nnc(NC(=O)CSc2nc3c(cc2C#N)CCCC3)s1`, the AC50 [1] is reported as 58.2 µM (active).
For `O=C(O)CC1=C(Nc2ccccc2)C(=O)N(c2ccccc2)C1c1ccc(Cl)cc1` (stereo not given), the EC50 [2] was > 260 µM (inactive), the IC50 [3] was 8.1 µM (active) and the IC50 [4] was 2.7 µM (active).
With `O=C(COC(=O)c1ccc(Br)o1)Nc1nc2c(F)c(F)c(F)cc2s1` the IC50 [5] was 12.7 µM (active).
In the case of `O=C(NCCN1CCOCC1)Nc1ccc(Cl)cc1Cl`, the AC50 [1] is reported as 68.1 µM (active).
For `Cc1ccc(S(=O)(=O)N(C(=O)c2ccncc2)c2ccc(OC(=O)c3ccncc3)cc2)c(C)c1`, the AC50 [6] was 1.72 µM (active).
With `CCCCNc1c(-c2cccc(-c3cc(C(C)=O)cs3)c2)nc2ccc(C)cn12` the AC50 [7] was 4.47 µM (active), the IC50 (Melanocortin receptor 4 [8]) was > 64.6 µM (inactive) and the EC50 (Melanocortin receptor 4 [9]) was > 89.2 µM (inactive). The IC50 [10] was > 64.6 µM (inactive), the AC50 [11] was > 52 µM (inactive) and the AC50 [12] was 11.4 µM (active). The AC50 [13] was 14.5 µM (active) and the AC50 [14] was > 52 µM (inactive).
For `COc1cccc(-n2c(CN3CCN(C)CC3)nc3ccc([N+](=O)[O-])cc3c2=O)c1`, the IC50 (Vero [15]) was 14.7 µM (active) and the CC50 (Vero [16]) was > 25 µM (active).
With `CCCCn1c(N)c(N(CC(C)C)C(=O)CSCC(=O)Nc2cccc(C)c2)c(=O)[nH]c1=O` the AC50 [1] was 54.1 µM (active).
With `CCOC(=O)c1cc(C(=O)NC(C)c2ccccc2)c(O)nc1C` (stereo not given) the IC50 [3] was 0.798 µM (active) and the IC50 [4] was 0.34 µM (active).
In the case of `Oc1c(Br)cc(Br)cc1/C=N/c1cccc2ncccc12`, the EC50 [2] is reported as > 260 µM (inactive), the IC50 [3] is reported as 4.19 µM (active) and the IC50 [17] is reported as 36 µM (active). For the same compound, the IC50 (H9c2) was 13.5 µM (active) and the IC50 [4] was 4.74 µM (active).
In the case of `Cc1cccc(C)c1N1C(=O)CC2(CC(c3ccc(F)cc3)=NO2)C1=O` (stereo not given), the EC50 [18] is reported as > 100 µM (inactive).
For `COc1cc(NCC(C)C(=O)O)cc(OC)c1OC` (stereo not given), the EC50 [18] was > 100 µM (inactive).
For `O=NN(CCCl)C(=O)N[C@H]1CC[C@@H](CC(=O)O)CC1`, the GI50 (P388/ADR) was 19.9 µM (inactive), the GI50 (SN12K1) was > 100 µM (inactive) and the GI50 (P388) was 12.9 µM (inactive).
For `C=C1CC2CC[C@@]34C[C@@H]5O[C@@H]6C(O[C@H]7CC[C@H](CC(=O)OC8[C@@H](C)C9OC%10C[C@]%11(C[C@@H]%12O[C@@]%13(C[C@@H](C)[C@@H]%12O%11)C[C@H](C)[C@@H]%11OC%12CC(C(O)CO)OC%12C[C@@H]%11O%13)OC%10CC9O[C@H]8C[C@H]8O[C@@H](CC[C@@H]1O2)C[C@@H](C)C8=C)O[C@@H]7[C@@H]6O3)C5O4` (stereo not given in full), the GI50 (P388/ADR) was 0.00416 µM (active), the GI50 (SN12K1) was 0.000148 µM (active) and the GI50 (P388) was 0.000148 µM (active).
With `O=c1ccsn1Cc1ccccc1` the EC50 [19] was 1.1 µM (active), the EC50 [20] was 13 µM (active) and the EC50 [21] was 37.5 µM (active). The EC50 [22] was 12.5 µM (active), the IC50 [23] was 75.6 µM (inactive) and the AC50 [24] was < 0.005 µM (active). For the same compound, the CC50 (Vero [16]) was > 25 µM (active) and the EC50 [25] was > 104 µM (inactive).
In the case of `CC1OC(=O)C(C(C)C)NC(=O)C(C(C)C)OC(=O)C(C(C)C)NC(=O)C(C)OC(=O)C(C(C)C)NC(=O)C(C(C)C)OC(=O)C(C(C)C)NC(=O)C(C)OC(=O)C(C(C)C)NC(=O)C(C(C)C)OC(=O)C(C(C)C)NC1=O` (stereo not given), the GI50 (P388/ADR) is reported as 0.00396 µM (active), the GI50 (SN12K1) is reported as 0.00281 µM (active) and the GI50 (P388) is reported as 0.0025 µM (active). The AC50 (Cytochrome P450 3A4) was 12.6 µM (inconclusive).
